Test results published in patent publication US20230085307A1, “PYRIDAZINONE COMPOUND AND HERBICIDE” (NISSAN CHEMICAL CORPORATION, priority 2019, published 2023).

How the values were obtained:
lambsquarters [1] = assay: Test Example 5: herbicidal effect by foliage application, plastic box (Table 20, symbol O); type: in vivo, lambsquarters (Chenopodium album); settings: foliage application, 320 g/ha, evaluated three weeks after application
How it was run: (§1)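 Plants were sown into sterilized diluvial soil under about 1.5 cm cover and kept in a greenhouse at 25° C. to 30° C. Fourteen days on, foliage received an even spray of the diluted emulsion. Herbicidal or crop effect was judged three weeks afterwards.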

southern crabgrass [2] = assay: Test Example 5: herbicidal effect by foliage application, plastic box (Table 20, symbol F); type: in vivo, southern crabgrass (Digitaria ciliaris); settings: foliage application, 320 g/ha, evaluated three weeks after application
How it was run: as §1

lambsquarters [3] = assay: Test Example 4: herbicidal effect by soil treatment (Table 19, symbol O); type: in vivo, lambsquarters (Chenopodium album); settings: amount of applied herbicide 320 g/ha
How it was run: (§2)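 In this soil treatment, the formulated compound reached the seeds only through the soil: seeds were buried about 1.5 cm deep in sterilized diluvial soil, then the diluted emulsion was sprayed over the surface. After three weeks at 25° C. to 30° C. in a greenhouse, effects were graded on criteria from an earlier test.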

wild oat [4] = assay: Test Example 5: herbicidal effect by foliage application, plastic box (Table 20, symbol I); type: in vivo, wild oat (Avena fatua); settings: foliage application, 320 g/ha, evaluated three weeks after application
How it was run: as §1

persian speedwell [5] = assay: Test Example 5: herbicidal effect by foliage application, plastic box (Table 20, symbol R); type: in vivo, Persian speedwell (Veronica persica); settings: foliage application, 320 g/ha, evaluated three weeks after application
How it was run: as §1

barnyard grass [6] = assay: Test Example 3: herbicidal effect by foliage application, Wagner pot (Table 18, symbol H); type: in vivo, barnyard grass (Echinochloa crus-galli); settings: amount of applied herbicide 320 g/ha
How it was run: (§3)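 Plants were sown in alluvial soil held under 0.1–0.5 cm standing water and grown 14 days in a greenhouse at 25–30 °C. An emulsifiable formulation, water-diluted to the set dose, was then sprayed onto the foliage, and effects were scored three weeks later using previously defined criteria.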

green foxtail [7] = assay: Test Example 4: herbicidal effect by soil treatment (Table 19, symbol G); type: in vivo, green foxtail (Setaria viridis); settings: amount of applied herbicide 320 g/ha
How it was run: as §2

blackgrass [8] = assay: Test Example 5: herbicidal effect by foliage application, plastic box (Table 20, symbol J); type: in vivo, blackgrass (Alopecurus myosuroides); settings: foliage application, 320 g/ha, evaluated three weeks after application
How it was run: as §1

false cleavers [9] = assay: Test Example 4: herbicidal effect by soil treatment (Table 19, symbol Q); type: in vivo, false cleavers (Galium spurium); settings: amount of applied herbicide 320 g/ha
How it was run: as §2

persian speedwell [10] = assay: Test Example 4: herbicidal effect by soil treatment (Table 19, symbol R); type: in vivo, Persian speedwell (Veronica persica); settings: amount of applied herbicide 320 g/ha
How it was run: as §2

chickweed [11] = assay: Test Example 5: herbicidal effect by foliage application, plastic box (Table 20, symbol P); type: in vivo, common chickweed (Stellaria media); settings: foliage application, 320 g/ha, evaluated three weeks after application
How it was run: as §1

velvetleaf [12] = assay: Test Example 5: herbicidal effect by foliage application, plastic box (Table 20, symbol M); type: in vivo, velvetleaf (Abutilon theophrasti); settings: foliage application, 320 g/ha, evaluated three weeks after application
How it was run: as §1

barnyard grass [13] = assay: Test Example 5: herbicidal effect by foliage application, plastic box (Table 20, symbol H); type: in vivo, barnyard grass (Echinochloa crus-galli); settings: foliage application, 320 g/ha, evaluated three weeks after application
How it was run: as §1

chickweed [14] = assay: Test Example 4: herbicidal effect by soil treatment (Table 19, symbol P); type: in vivo, common chickweed (Stellaria media); settings: amount of applied herbicide 320 g/ha
How it was run: as §2

redroot pigweed [15] = assay: Test Example 5: herbicidal effect by foliage application, plastic box (Table 20, symbol N); type: in vivo, redroot pigweed (Amaranthus retroflexus); settings: foliage application, 320 g/ha, evaluated three weeks after application
How it was run: as §1

Italian ryegrass [16] = assay: Test Example 4: herbicidal effect by soil treatment (Table 19, symbol K); type: in vivo, Italian ryegrass (Lolium multiflorum); settings: amount of applied herbicide 320 g/ha
How it was run: as §2

velvetleaf [17] = assay: Test Example 4: herbicidal effect by soil treatment (Table 19, symbol M); type: in vivo, velvetleaf (Abutilon theophrasti); settings: amount of applied herbicide 320 g/ha
How it was run: as §2

late watergrass = assay: Test Example 1: herbicidal activity, application before weed generation under submerged conditions (Table 16, symbol A); type: in vivo, late watergrass (Echinochloa oryzicola); settings: 320 g/ha applied herbicide
How it was run: (§4)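 Submerged Wagner pots (alluvial soil, 4 cm water) sown with weed seeds and planted with 2.5-leaf rice seedlings; emulsifiable concentrate diluted in water applied to water surface on sowing day. Held in greenhouse at 25-30 °C; injury scored 0-5 by herbicidal rate after three weeks.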

southern crabgrass [18] = assay: Test Example 4: herbicidal effect by soil treatment (Table 19, symbol F); type: in vivo, southern crabgrass (Digitaria ciliaris); settings: amount of applied herbicide 320 g/ha
How it was run: as §2

barnyard grass [19] = assay: Test Example 4: herbicidal effect by soil treatment (Table 19, symbol H); type: in vivo, barnyard grass (Echinochloa crus-galli); settings: amount of applied herbicide 320 g/ha
How it was run: as §2

false cleavers [20] = assay: Test Example 5: herbicidal effect by foliage application, plastic box (Table 20, symbol Q); type: in vivo, false cleavers (Galium spurium); settings: foliage application, 320 g/ha, evaluated three weeks after application
How it was run: as §1

redroot pigweed [21] = assay: Test Example 4: herbicidal effect by soil treatment (Table 19, symbol N); type: in vivo, redroot pigweed (Amaranthus retroflexus); settings: amount of applied herbicide 320 g/ha
How it was run: as §2

oval-leafed pondweed = assay: Test Example 1: herbicidal activity, application before weed generation under submerged conditions (Table 16, symbol C); type: in vivo, oval-leafed pondweed (Monochoria vaginalis); settings: 320 g/ha applied herbicide
How it was run: as §4

windgrass [22] = assay: Test Example 4: herbicidal effect by soil treatment (Table 19, symbol L); type: in vivo, windgrass (Apera spica-venti); settings: amount of applied herbicide 320 g/ha
How it was run: as §2

blackgrass [23] = assay: Test Example 4: herbicidal effect by soil treatment (Table 19, symbol J); type: in vivo, blackgrass (Alopecurus myosuroides); settings: amount of applied herbicide 320 g/ha
How it was run: as §2

Chinese sprangletop = assay: Test Example 3: herbicidal effect by foliage application, Wagner pot (Table 18, symbol D); type: in vivo, chinese sprangletop (Leptochloa chinensis); settings: amount of applied herbicide 320 g/ha
How it was run: as §3

Japanese bulrush = assay: Test Example 1: herbicidal activity, application before weed generation under submerged conditions (Table 16, symbol B); type: in vivo, Japanese bulrush (Schoenoplectus juncoides); settings: 320 g/ha applied herbicide
How it was run: as §4

windgrass [24] = assay: Test Example 5: herbicidal effect by foliage application, plastic box (Table 20, symbol L); type: in vivo, windgrass (Apera spica-venti); settings: foliage application, 320 g/ha, evaluated three weeks after application
How it was run: as §1

Italian ryegrass [25] = assay: Test Example 5: herbicidal effect by foliage application, plastic box (Table 20, symbol K); type: in vivo, Italian ryegrass (Lolium multiflorum); settings: foliage application, 320 g/ha, evaluated three weeks after application
How it was run: as §1

rice flat sedge = assay: Test Example 3: herbicidal effect by foliage application, Wagner pot (Table 18, symbol E); type: in vivo, rice flat sedge (Cyperus iria); settings: amount of applied herbicide 320 g/ha
How it was run: as §3

wild oat [26] = assay: Test Example 4: herbicidal effect by soil treatment (Table 19, symbol I); type: in vivo, wild oat (Avena fatua); settings: amount of applied herbicide 320 g/ha
How it was run: as §2

green foxtail [27] = assay: Test Example 5: herbicidal effect by foliage application, plastic box (Table 20, symbol G); type: in vivo, green foxtail (Setaria viridis); settings: foliage application, 320 g/ha, evaluated three weeks after application
How it was run: as §1

## COc1ccc2sc(-c3ccccc3OC)c(-c3c(O)c(C)nn(C)c3=O)c2c1 [2-165]
Lambsquarters [1]
  herbicidal effect on O: lambsquarters (criteria 0-5): 5 (Herbicidal rate of 90% or more (almost completely withered))
Southern crabgrass [2]
  herbicidal effect on F: southern crabgrass (criteria 0-5): 5 (Herbicidal rate of 90% or more (almost completely withered))
Lambsquarters [3]
  O: lambsquarters, herbicidal effect rating: 4 (Herbicidal rate of 70% or more and less than 90%)
Wild oat [4]
  herbicidal effect on I: wild oat (criteria 0-5): 5 (Herbicidal rate of 90% or more (almost completely withered))
Persian speedwell [5]
  herbicidal effect on R: persian speedwell (criteria 0-5): 4 (Herbicidal rate of 70% or more and less than 90%)
Barnyard grass [6]
  herbicidal effect on H: barnyard grass: 5 (Herbicidal rate of 90% or more (almost completely withered))
Green foxtail [7]
  G: green foxtail, herbicidal effect rating: 4 (Herbicidal rate of 70% or more and less than 90%)
Blackgrass [8]
  herbicidal effect on J: blackgrass (criteria 0-5): 5 (Herbicidal rate of 90% or more (almost completely withered))
False cleavers [9]
  Q: false cleavers, herbicidal effect rating: 3 (Herbicidal rate of 40% or more and less than 70%)
Persian speedwell [10]
  R: persian speedwell, herbicidal effect rating: 5 (Herbicidal rate of 90% or more (almost completely withered))
Chickweed [11]
  herbicidal effect on P: chickweed (criteria 0-5): 5 (Herbicidal rate of 90% or more (almost completely withered))
Velvetleaf [12]
  herbicidal effect on M: velvetleaf (criteria 0-5): 5 (Herbicidal rate of 90% or more (almost completely withered))
Barnyard grass [13]
  herbicidal effect on H: barnyard grass (criteria 0-5): 5 (Herbicidal rate of 90% or more (almost completely withered))
Chickweed [14]
  P: chickweed, herbicidal effect rating: 4 (Herbicidal rate of 70% or more and less than 90%)
Redroot pigweed [15]
  herbicidal effect on N: redroot pigweed (criteria 0-5): 5 (Herbicidal rate of 90% or more (almost completely withered))
Italian ryegrass [16]
  K: Italian ryegrass, herbicidal effect rating: 0 (Herbicidal rate of 5% or less (almost no effect))
Velvetleaf [17]
  M: velvetleaf, herbicidal effect rating: 2 (Herbicidal rate of 20% or more and less than 40%)
Late watergrass
  Herbicidal effect on A: late watergrass (grade 0-5): 3 (Herbicidal rate of 40% or more and less than 70%)
Southern crabgrass [18]
  F: southern crabgrass, herbicidal effect rating: 3 (Herbicidal rate of 40% or more and less than 70%)
Barnyard grass [19]
  H: barnyard grass, herbicidal effect rating: 3 (Herbicidal rate of 40% or more and less than 70%)
False cleavers [20]
  herbicidal effect on Q: false cleavers (criteria 0-5): 5 (Herbicidal rate of 90% or more (almost completely withered))
Redroot pigweed [21]
  N: redroot pigweed, herbicidal effect rating: 4 (Herbicidal rate of 70% or more and less than 90%)
oval-leafed pondweed
  Herbicidal effect on C: oval-leafed pondweed (grade 0-5): 1 (Herbicidal rate of 5% or more and less than 20%)
Windgrass [22]
  L: windgrass, herbicidal effect rating: 4 (Herbicidal rate of 70% or more and less than 90%)
Blackgrass [23]
  J: blackgrass, herbicidal effect rating: 4 (Herbicidal rate of 70% or more and less than 90%)
Chinese sprangletop
  herbicidal effect on D: Chinese sprangletop: 3 (Herbicidal rate of 40% or more and less than 70%)
Japanese bulrush
  Herbicidal effect on B: Japanese bulrush (grade 0-5): 0 (Herbicidal rate of 5% or less (almost no effect))
Windgrass [24]
  herbicidal effect on L: windgrass (criteria 0-5): 5 (Herbicidal rate of 90% or more (almost completely withered))
Italian ryegrass [25]
  herbicidal effect on K: Italian ryegrass (criteria 0-5): 4 (Herbicidal rate of 70% or more and less than 90%)
Rice flat sedge
  herbicidal effect on E: rice flat sedge: 5 (Herbicidal rate of 90% or more (almost completely withered))
Wild oat [26]
  I: wild oat, herbicidal effect rating: 2 (Herbicidal rate of 20% or more and less than 40%)
Green foxtail [27]
  herbicidal effect on G: green foxtail (criteria 0-5): 5 (Herbicidal rate of 90% or more (almost completely withered))
